By kinact/KI is commonly meant the second-order rate constant of inactivation.

The values that follow come from publication PMC11510499, “Mechanism-Based Allylic Carbasugar Chlorides That Form Covalent Intermediates with α- and β-Galactosidases” (Molecules, 2024).

Common to all, as to type: biochemical
Series [1] deals with T1, A. oryzae GH35 β-galactosidase (LacA) (Aspergillus oryzae, UniProt Q2UCU3).
T1 construct: purchased Sigma
T1 sequence (Q2UCU3 19-1005): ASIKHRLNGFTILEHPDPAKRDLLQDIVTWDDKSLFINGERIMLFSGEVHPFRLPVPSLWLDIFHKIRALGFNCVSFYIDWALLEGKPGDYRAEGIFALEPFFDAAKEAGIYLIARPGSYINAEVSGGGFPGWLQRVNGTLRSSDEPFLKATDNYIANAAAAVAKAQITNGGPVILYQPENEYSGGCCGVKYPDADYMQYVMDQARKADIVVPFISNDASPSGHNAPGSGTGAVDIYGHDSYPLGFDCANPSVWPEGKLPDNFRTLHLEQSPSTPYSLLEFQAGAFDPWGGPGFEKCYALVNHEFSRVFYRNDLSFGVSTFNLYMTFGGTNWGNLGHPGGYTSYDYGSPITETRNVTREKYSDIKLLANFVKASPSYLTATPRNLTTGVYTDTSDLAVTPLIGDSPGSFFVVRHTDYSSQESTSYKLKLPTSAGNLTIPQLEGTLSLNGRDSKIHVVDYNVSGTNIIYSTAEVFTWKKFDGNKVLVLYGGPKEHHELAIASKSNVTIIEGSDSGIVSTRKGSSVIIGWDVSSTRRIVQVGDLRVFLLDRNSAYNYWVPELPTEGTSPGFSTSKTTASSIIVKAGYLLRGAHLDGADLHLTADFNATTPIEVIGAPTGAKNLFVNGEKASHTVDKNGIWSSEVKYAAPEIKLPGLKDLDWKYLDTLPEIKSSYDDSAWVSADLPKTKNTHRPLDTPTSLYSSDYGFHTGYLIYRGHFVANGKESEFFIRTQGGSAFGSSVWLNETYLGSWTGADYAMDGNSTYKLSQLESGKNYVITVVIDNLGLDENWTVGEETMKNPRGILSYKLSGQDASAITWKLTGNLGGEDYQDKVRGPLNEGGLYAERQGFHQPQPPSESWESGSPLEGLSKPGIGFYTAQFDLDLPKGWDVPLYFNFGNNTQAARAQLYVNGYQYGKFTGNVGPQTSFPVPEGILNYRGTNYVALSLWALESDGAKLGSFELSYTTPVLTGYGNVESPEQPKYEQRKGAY
Nature of the series: Covalent inhibition (inactivation) kinetics of A. oryzae β-galactosidase (LacA). Conditions: for kinact/Ki: 50 mM sodium acetate buffer. Here is the method: (§1) Recombinant Human α-galactosidase (GalA) was purchased from Biotechne, and Aspergillus oryzae β-galactosidase was purchased from Sigma. We calculated the various rate constants for covalent inhibition of these two glycosidases by compounds 1 to 4 by use of either a classical jump dilution assay or a continuous assay protocol.
(§2) First, we incubated the enzyme using at least five different inhibitor concentrations in the appropriate buffer. We then ‘jump-diluted’ the inactivation mixture by adding 4 µL aliquots of the inhibition mixture to a pre-equilibrated 196 µL buffered solution containing substrate (see assay conditions section). We monitored the enzymatic activity using either UV-vis (Cary300, Agilent Technologies, Santa Clara, CA, United States) or fluorescence (Cary Eclipse). All rate constants for inhibition (kobs) were calculated using a standard nonlinear least squares fit of enzyme activity (%) versus time data to a first-order equation. We then used a standard Michaelis–Menten expression to evaluated kinact and kinact/Ki for covalent inhibition using a standard nonlinear least squares fitting routine. However, in cases where we noted insufficient saturation of inhibitor, we used a standard linear fit of the kobs versus covalent inhibitor concentration to obtain the inhibition rate constant kinact/Ki.
(§3) Second, we also used a continuous assay protocol in which we added the enzyme to a pre-equilibrated buffered mixture containing substrate and inhibitor. We monitored the reaction continuously until we noted that the rate of fluorophore (or chromophore) became linear following the initial first-order process. We repeated these experiments for at least five other inhibitor concentrations. We calculated the apparent rate constant (kapp) at every inhibitor concentration by fitting the progress curves to equation 1 (for UV-Vis or a similar equation for fluorescence data), where Vi is the initial velocity at t = 0 and Vf is the velocity at t = ∞ [31]. (1) Abs=νft+νi−νf/kapp1−e^−kappt
(§4) The kapp values versus inhibitor concentrations were then fit to a modified Michaelis–Menten expression for competitive inhibition (equation 2), which gives the second-order inhibition parameter kinact/Ki only. (2) kapp=kreact+kinact/KiI/1+S/Km
(§5) The release of 4-nitrophenol was monitored at 400 nm, while the release of 4-methylumbelliferone was monitored at 365 nm excitation and 445 emission wavelengths. All rate constants were determined by fitting experimental data on the computer program GraphPad Prism 10.0 (GraphPad Software, Boston, MA, USA).

In series [2] the target is T2, Human α-galactosidase (GalA) (Homo sapiens, UniProt P06280).
T2 construct: purchased Biotechne
T2 sequence (P06280 32-429): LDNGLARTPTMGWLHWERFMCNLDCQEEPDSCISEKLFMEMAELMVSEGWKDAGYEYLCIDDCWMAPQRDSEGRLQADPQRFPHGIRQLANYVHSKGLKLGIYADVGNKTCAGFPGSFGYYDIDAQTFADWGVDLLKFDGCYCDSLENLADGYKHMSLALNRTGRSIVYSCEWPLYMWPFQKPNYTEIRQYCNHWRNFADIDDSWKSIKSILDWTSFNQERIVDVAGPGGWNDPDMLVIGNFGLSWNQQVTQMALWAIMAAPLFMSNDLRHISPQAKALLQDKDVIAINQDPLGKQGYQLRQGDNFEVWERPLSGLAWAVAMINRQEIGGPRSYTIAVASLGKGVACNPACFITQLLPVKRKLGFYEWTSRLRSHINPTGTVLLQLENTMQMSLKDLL
Nature of the series: Covalent inhibition (inactivation) kinetics of Human α-galactosidase (GalA). Conditions: for covalent inhibition observed: at 5 mM inhibitor, NIO = No inhibition observed, pH 4.6, 37 °C. The method, then: as §1, §2, §3, §4, §5

The target of series [3] is T1, A. oryzae GH35 β-galactosidase (LacA). Nature of the series: Reactivation kinetics of covalently inhibited A. oryzae β-galactosidase (LacA). To be noted: 50 mM sodium acetate buffer, pH 4.5, 0.1% BSA, 37 °C; for t1/2: half-life of covalent intermediate. The method, then:
(§6) In summary, all inhibitors that covalently label either Human α-galactosidase or Aspergillus oryzae β-galactosidase display linear second-order kinetics where the slopes of the graphs give kinact/Ki (Table 1 and Table 2). That is, no saturation binding is noted even up to inhibitor concentrations of 8 mM, i.e., Ki » 8 mM. […] As a result, reactivation kinetics were monitored by diluting a quantity of inhibited enzyme into a buffered solution containing substrate. Shown in Figure 3 are the measured gradients (time intervals of 100 s) from the absorbance versus time plot of the reactivation for GH35 A. oryzae β-galactosidase with 1–3.
(§7) We monitored a concentrated solution of enzyme and inhibitor at 37 °C until the measured enzyme activity dropped to under 5% of that initially measured. We then added a small volume (typically 0.5 µL) to a pre-equilibrated reactivation buffer containing substrate (200 µL). We then continuously monitored the release of either the chromophore or the fluorophore. We then calculated signal versus time gradient slope at uniform time intervals to give reaction rates. We fit these computed values to a standard first-order rate equation (Prism 10.0) to give us the first order reactivation rate constant (kreact).

Series [4] concerns the target T2, Human α-galactosidase (GalA). Nature of the series: Reactivation kinetics of covalently inhibited Human α-galactosidase (GalA). Conditions: 50 mM sodium citrate buffer, pH 4.6, 50 mM NaCl, 0.1% BSA, 37 °C; for t1/2: half-life of covalent intermediate. The method, then:
as §6, §7

SMILES strings stand for the structures. “Also recorded” adds a separate entry of the source.

Take `OC1C=CC(Cl)C(O)C1O` (stereo not drawn) [Compound 3]: the kinact/Ki in series [1] (pH 4.5, 0.1% BSA, 37 °C) turned out to be 2.7 ± 0.04 M⁻¹ s⁻¹; in series [2] (50 mM sodium citrate buffer, pH 4.6, 50 mM NaCl, 0.1% BSA, 37 °C), 0.18 ± 0.01 M⁻¹ s⁻¹. Moreover, the kreact result in series [3] is “(2.6 ± 0.2) × 10^−3 s^−1”; in series [4] it was “(4.9 ± 0.2) × 10^−4 s^−1”. In addition, the t1/2 is listed as 4.5 ± 0.3 min in series [3] and 23.4 ± 0.9 min in series [4].

In the case of `OC1C=CC(Cl)C(O)C1O` (stereo not drawn) [Compound 2], in series [1] (pH 4.5, 0.1% BSA, 37 °C), the kinact/Ki turned out to be 47 ± 2 M⁻¹ s⁻¹. In addition, in series [2] (pH 4.6, 50 mM sodium citrate buffer, pH 4.6, 50 mM NaCl, 0.1% BSA, 37 °C), the kinact/KI was 0.25 ± 0.004 M⁻¹ s⁻¹. Besides, in series [3], the kreact result was “(2.6 ± 0.2) × 10^−3 s^−1” and the t1/2 is recorded as 4.5 ± 0.3 min. Also, in series [4], the kreact entry is reported as “(5.1 ± 0.2) × 10^−4 s^−1” and the t1/2 worked out at 22.5 ± 0.7 min.

`O[C@@H]1[C@@H](O)[C@@H](O)C=C[C@H]1Cl` [Compound 1, 5,5a-didehydro-5a-carba-β-L-arabino-hexopyranosyl chloride]: the kinact/KI in series [1] (pH 4.5, 50 mM sodium acetate buffer, pH 4.5, 0.1% BSA, 37 °C) was 17 ± 0.5 M⁻¹ s⁻¹. Moreover, the “covalent inhibition observed” value in series [2] is recorded as “no measurable covalent inhibition; also recorded: NIO ^a at 5 mM”. Further, in series [3], the kreact result is given as “(2.5 ± 0.1) × 10^−3 s^−1” and the t1/2 was 4.6 ± 0.2 min.

Take `O[C@@H]1[C@H](O)[C@@H](O)C=C[C@H]1Cl` [Compound 4]: the “covalent inhibition observed” value in series [1] (at 1 mM inhibitor, NIO = No inhibition observed, pH 4.5, 37 °C) is on record as “no activity; also recorded: NIO ^a at 1 mM”; in series [2], “no measurable covalent inhibition; also recorded: NIO ^a at 5 mM”.
